Literature values as cited in patent publication US20110201579A1, “Method of Improving the Overall Health of a Patient by Application of Pregnenolone” (priority 2010, published 2011).

Experiments:
[1] = individuals with rheumatoid arthritis
[2] = some people
[3] = rodents

Row | SMILES | improvement of rheumatoid arthritis [1] | energy, vision, memory, clarity of thinking, wellbeing, sexual enjoyment or libido [2] | memory [3]
1 | C[C@]12CCC(=O)C=C1CC[C@@H]1[C@@H]2[C@@H](O)C[C@@]2(C)[C@H]1CC[C@]2(O)C(=O)CO [cortisol] | outstanding short-term improvements |  | 
2 | CC(=O)[C@H]1CC[C@H]2[C@@H]3CC=C4C[C@@H](O)CC[C@]4(C)[C@H]3CC[C@]12C [pregnenolone, Pregnenolone] |  | improves energy, vision, memory, clarity of thinking, wellbeing, and often sexual enjoyment or libido | one of the most effective and powerful memory boosters
